What was measured:
[1] = In vitro relaxivity of liposomal contrast agents at 0.5 Tesla (Table I); assay type: physicochemical; conditions: 0.5 Tesla (21.3 MHz); liposomes EPC/cholesterol 8:2, 33 mole percent compound
Description: Liposomal contrast agents of the invention, prepared in accordance with Example 8, were serially diluted from a stock solution of known concentration. Diluted concentrations for testing were held constant at 0.5 mM, 0.25 mM, 0.125 mM, 0.100 mM, 0.05 mM, and 0.025 mM, respectively. Samples were scanned on a Toshiba MRT 50A 0.5 Tesla (21.3 MHz) clincal magnet equipped with a QD head coil (Toshiba MRI scanner, Nasu, Japan). Signal intensities for resulting scans were then statistically analyzed using a computer curve fitting program (Fit All, MTR Software, version 1.1). Resulting relaxivities were regressed against the concentration to determine R1 (1/T1 mmol sec^-1) and R2 ([…]). The results were compared with similar scans for other compounds not within the scope of the present invention. Specifically, as a comparison for the contrast agents of the invention, 0.5 Tesla scans were made of Gd-DTPA (no liposome), Mn-EDTA-MEA (no liposome), Mn-EDTA-MEA (incorporated into a liposome of 0.1 micron), and phosphate buffered saline (PBS).
In all liposome examples in Table I, the lipid concentration is 200 mM, and all liposomes are composed of 80 mole percent egg phosphatidyl choline (EPC) and 20 mole percent cholesterol. […]

[2] = In vitro relaxivity of Mn-EDTA-DDP and Mn-EDTA-DDP albumin suspensions at 0.5 Tesla (Table III); assay type: physicochemical; conditions: 0.5 Tesla (21.3MHz), in mM^-1 s^-1
Description: Mn-EDTA-DDP and Mn-EDTA-DDP albumin suspensions (contrast agents within the scope of the invention) were prepared in accordance with Example 11, except that water instead of saline was used. The samples scanned by NMR using a 0.5 Tesla (21.3MHz) Toshiba MRI scanner (Nasu, Japan) to determine relaxivity. The results were compared with similar scans for other compounds not within the scope of the invention. Specifically, scans were made of contrast agent of the invention, Mn-EDTA-DDP, Mn-EDTA-DDP albumin suspensions (both heated to 55° C., and unheated), and compared with scans of PBS, Gd-DTPA, MnCl2, and MnCl2 albumin suspensions. MnCl2, and the MnCl2 liposomes were prepared in accordance with Example 15.

[3] = background; compared with gadolinium alone; cited from earlier work
Outbred ICR mice = assay: In vivo toxicity, LD50 in mice after intravenous tail vein injection (Table V); design: species or system mouse; conditions: i.v. tail vein
Description: Outbred ICR mice (Harlan Sprague Dawley, Indianapolis, Ind.) were injected intraveneously via a tail vein injection with various doses of Mn-EDTA-DDP and Mn-EDTA-DDP liposomes, prepared in accordance with Example 8, and the LD50 measured. As a comparison, the mice were also injected with MnCl2 and MnCl2 liposomes.
In Table V, MnCl2 liposomes denotes manganese chloride salt entrapped in 100 nm diameter liposomes comprised of 8:2 EPC/cholesterol. Also, Mn-EDTA-DDP in liposomes refers to 100 nm liposomes comprised of 1:3Mn-EDTA-DDP to lipid (where the lipid is 8:2 EPC/cholesterol).

[4] = tested on: rats bearing hepatic tumors (C5 clonal derivative epithelioid neoplasms); assay: In vivo efficacy, MR imaging at 1.5 Tesla of rats bearing hepatic tumors (Tables IV A-D); design: species or system rat; conditions: i.v.; for Tumor Contrast To Noise: 30 minute delay
Description: Mn-EDTA-ODP and Mn-EDTA-DDP liposomes of both 30 nm and 100 nm (contrast agents within the scope of the invention) were prepared in accordance with Example 8, injected intraveneously via a tail vein injection into rats bearing hepatic tumors (C5 clonal derivative epithelioid neoplasms), and the rats imaged using a 1.5 Tesla GE Signa Clinical Magnet equipped with a linear knee coil. Animals were anesthesized with a 10:1 mixture v/v of ketamine (100 mg/ml) and acepoumozine (10 mg/ml) prior to imaging. Imaging parameters were: TR=250; TE=12; Matrix=256×192; NEX=8; FOV 16 cm; Slice Thickness=3 mm; Slice Gap=1 mm. Images were taken in the coronal plane, mapped off an axial scout image. For comparison, rats were also injected with MnCl2, and MnCl2 liposomes, prepared in accordance with Example 15.
In Table IV A, imaging was preformed with one rat at each dose. S/N denotes signal to noise ratio.
In Table IV B, the "*" denotes a 30 minutes delay in imaging. Also, NA denotes that imaging was not done at the indicated dosage. The liposomes employed were composed of 80 mole percent egg phosphatidylcholine (EPC) and 20 mole percent cholesterol. With the Mn-EDTA-DDP liposomes, there was a 1:3 molar ratio of Mn-EDTA-DDP to lipid in the liposomes (lipid was 8:2 EPC/cholesterol). The data was obtained from one rat imaged at each dose.
In Table IV C, NT denotes that no tumors were detected, and NA denotes that imaging not done at the indicated dosage.
In Table IV D, NT denotes that no tumors were detected, and NA denotes that imaging not done at the indicated dosage.

## O=C([O-])CN(CCN(CC(=O)[O-])CC(=O)[O-])CCN(CC(=O)[O-])CC(=O)[O-].[Gd+3] [Gd-DTPA]
[1]
  R1 (1/T1), relaxivity: 4.68 ± 0.279 per millimole of paramagnetic
  R2 (1/T2), relaxivity: 5.17 ± 0.148 per millimole of paramagnetic
[2]; 1.0 mM
  R1, relaxivity: 4.58 ± 0.143
  R2, relaxivity: 5.41 ± 0.65
[3]
  toxicity (in words): much less toxicity

## [Cl][Mn][Cl] [MnCl2, manganese chloride]
Outbred ICR mice
  Interpolated LD50s: 250 µmol/kg
[4]; 0.5 μM/kg
  Tumor Contrast To Noise: 12
[4]; 0.5 μM/kg, delayed post (30 minutes delay)
  Percent Liver Enhancement: 0%
[4]; 0.5 μM/kg, post
  Contrast to Noise: 19
  Percent Liver Enhancement: 0%
[4]; 0.5 μM/kg, pre
  Contrast to Noise: 28
[4]; 1.0 μM/kg
  Tumor Contrast To Noise: 16
[4]; 1.0 μM/kg, delayed post (30 minutes delay)
  Percent Liver Enhancement: 0%
[4]; 1.0 μM/kg, post
  Contrast to Noise: 23
  Percent Liver Enhancement: 0%
[4]; 1.0 μM/kg, pre
  Contrast to Noise: 37.5
[4]; 2.5 μM/kg
  Tumor Contrast To Noise: 35.9
[4]; 2.5 μM/kg, delayed post (30 minutes delay)
  Percent Liver Enhancement: 29.4%
[4]; 2.5 μM/kg, post
  Contrast to Noise: 17.9
  Percent Liver Enhancement: 25%
[4]; 2.5 μM/kg, pre
  Contrast to Noise: 13.1
[4]; 5.0 μM/kg
  Tumor Contrast To Noise: 31.3
[4]; 5.0 μM/kg, delayed post (30 minutes delay)
  Percent Liver Enhancement: 21%
[4]; 5.0 μM/kg, post
  Contrast to Noise: 28.3
  Percent Liver Enhancement: 43%
[4]; 5.0 μM/kg, pre
  Contrast to Noise: 21.3
[4]; 10.0 μM/kg
  Tumor Contrast To Noise: 29.6
[4]; 10 μM/kg, delayed post (30 minutes delay)
  Percent Liver Enhancement: 61%
[4]; 10 μM/kg, post
  Percent Liver Enhancement: 81%
[4]; 10.0 μM/kg, post
  Contrast to Noise: 29.2
[4]; 10.0 μM/kg, pre
  Contrast to Noise: 9.3
[2]; with and without albumin
  R1, relaxivity: 8.73 ± 0.928
  R2, relaxivity: 39.45 ± 0.515

## Manganese N,N'-Bis-(Carboxy-Decylamidomethyl-N-2,3-Dihydroxypropyl)-Ethylenediamine- N,N'-Diacetate [Mn-EDTA-DDP]
Outbred ICR mice
  Interpolated LD50s: 240 µmol/kg
[2]; with and without albumin
  R1, relaxivity: 9.83 ± 0.332
  R2, relaxivity: 15.20 ± 0.393
